{"source": "ChEMBL document CHEMBL4825729", "about": "“Modulators of immunoregulatory exonucleases PLD3 and PLD4 identified by high-throughput screen” (Bioorg Med Chem Lett, 2021)", "molecules": {"B1": {"name": "5'-3' exonuclease PLD4 (Homo sapiens), Q96BZ4 (protein)", "chain": "MLKPLWKAAVAPTWPCSMPPRRPWDREAGTLQVLGALAVLWLGSVALICLLWQVPRPPTWGQVQPKDVPRSWEHGSSPAWEPLEAEARQQRDSCQLVLVESIPQDLPSAAGSPSAQPLGQAWLQLLDTAQESVHVASYYWSLTGPDIGVNDSSSQLGEALLQKLQQLLGRNISLAVATSSPTLARTSTDLQVLAARGAHVRQVPMGRLTRGVLHSKFWVVDGRHIYMGSANMDWRSLTQVKELGAVIYNCSHLAQDLEKTFQTYWVLGVPKAVLPKTWPQNFSSHFNRFQPFHGLFDGVPTTAYFSASPPALCPQGRTRDLEALLAVMGSAQEFIYASVMEYFPTTRFSHPPRYWPVLDNALRAAAFGKGVRVRLLVGCGLNTDPTMFPYLRSLQALSNPAANVSVDVKVFIVPVGNHSNIPFSRVNHSKFMVTEKAAYIGTSNWSEDYFSSTAGVGLVVTQSPGAQPAGATVQEQLRQLFERDWSSRYAVGLDGQAPGQDCVWQG"}, "B2": {"name": "5'-3' exonuclease PLD3 (Homo sapiens), Q8IV08 (protein)", "chain": "MKPKLMYQELKVPAEEPANELPMNEIEAWKAAEKKARWVLLVLILAVVGFGALMTQLFLWEYGDLHLFGPNQRPAPCYDPCEAVLVESIPEGLDFPNASTGNPSTSQAWLGLLAGAHSSLDIASFYWTLTNNDTHTQEPSAQQGEEVLRQLQTLAPKGVNVRIAVSKPSGPQPQADLQALLQSGAQVRMVDMQKLTHGVLHTKFWVVDQTHFYLGSANMDWRSLTQVKELGVVMYNCSCLARDLTKIFEAYWFLGQAGSSIPSTWPRFYDTRYNQETPMEICLNGTPALAYLASAPPPLCPSGRTPDLKALLNVVDNARSFIYVAVMNYLPTLEFSHPHRFWPAIDDGLRRATYERGVKVRLLISCWGHSEPSMRAFLLSLAALRDNHTHSDIQVKLFVVPADEAQARIPYARVNHNKYMVTERATYIGTSNWSGNYFTETAGTSLLVTQNGRGGLRSQLEAIFLRDWDSPYSHDLDTSADSVGNACRLL"}}, "key": {"5'-3' exonuclease PLD4 [1]": {"target": "T1, 5'-3' exonuclease PLD4 (Homo sapiens, UniProt Q96BZ4)", "T1 sequence (Q96BZ4 whole entry)": "B1 chain", "assay": "Inhibition of PLD4 (unknown origin) using 3'-dT-MUP as substrate by fluorescence-based screening assay"}, "[2]": {"target": "T2, 5'-3' exonuclease PLD3 (Homo sapiens) (UniProt Q8IV08)", "T2 sequence (whole entry)": "B2 chain", "assay": "Mixed type inhibition of PLD3 (unknown origin) assessed as binding constant using varying concentration 3'-dT-MUP as substrate by fluorescence-based screening assay"}, "5'-3' exonuclease PLD3 [3]": {"target": "T3, 5'-3' exonuclease PLD3 (Homo sapiens, UniProt Q8IV08)", "T3 sequence (Q8IV08 whole entry)": "B2 chain", "assay": "Inhibition of PLD3 (unknown origin) using 3'-dT-nNPP as substrate by fluorescence-based screening assay"}, "5'-3' exonuclease PLD3 [4]": {"target": "T3, 5'-3' exonuclease PLD3", "assay": "Inhibition of PLD3 (unknown origin) using 3'-dT-MUP as substrate by fluorescence-based screening assay"}, "5'-3' exonuclease PLD4 [5]": {"target": "T1, 5'-3' exonuclease PLD4", "assay": "Inhibition of PLD4 (unknown origin) using 3'-dT-nNPP as substrate by fluorescence-based screening assay"}, "[6]": {"target": "T2, 5'-3' exonuclease PLD3 (Homo sapiens)", "assay": "Mixed type inhibition of PLD3 (unknown origin) assessed as Km using varying concentration 3'-dT-MUP as substrate by fluorescence-based screening assay"}, "5'-3' exonuclease PLD4 [7]": {"target": "T1, 5'-3' exonuclease PLD4", "assay": "Activation of PLD4 (unknown origin) using 3'-dT-nNPP as substrate by fluorescence-based screening assay"}, "5'-3' exonuclease PLD4 [8]": {"target": "T1, 5'-3' exonuclease PLD4", "assay": "Activation of PLD4 (unknown origin) using 3'-dT-MUP as substrate by fluorescence-based screening assay"}, "5'-3' exonuclease PLD3 [9]": {"target": "T3, 5'-3' exonuclease PLD3", "assay": "Activation of PLD3 (unknown origin) using 3'-dT-nNPP as substrate by fluorescence-based screening assay"}, "5'-3' exonuclease PLD3 [10]": {"target": "T3, 5'-3' exonuclease PLD3", "assay": "Activation of PLD3 (unknown origin) using 3'-dT-MUP as substrate by fluorescence-based screening assay"}, "[11]": {"target": "T2, 5'-3' exonuclease PLD3 (Homo sapiens)", "assay": "Activation of PLD3 (unknown origin) assessed as association constant using varying concentration 3'-dT-MUP as substrate by fluorescence-based screening assay", "settings": "filed as activator; call rule not given here"}, "[12]": {"target": "T4, 5'-3' exonuclease PLD4 (Homo sapiens) (UniProt Q96BZ4)", "T4 sequence (whole entry)": "B1 chain", "assay": "Competitive inhibition of PLD4 (unknown origin) assessed as binding constant using varying concentration 3'-dT-MUP as substrate by fluorescence-based screening assay"}, "[13]": {"target": "T4, 5'-3' exonuclease PLD4 (Homo sapiens)", "assay": "Competitive inhibition of PLD4 (unknown origin) assessed as Km using varying concentration 3'-dT-MUP as substrate by fluorescence-based screening assay"}, "[14]": {"substrate": "Cc1cn([C@H]2C[C@H](OP(=O)(O)Oc3ccc([N+](=O)[O-])cc3)[C@@H](CO)O2)c(=O)[nH]c1=O", "assay": "(§1) Substrate activity at PLD4 (unknown origin) assessed as Km by Michaelis-Menten kinetic model based fluorescence assay", "settings": "Homo sapiens"}, "[15]": {"substrate": "Cc1cn([C@H]2C[C@H](O)[C@@H](COP(=O)(O)Oc3ccc([N+](=O)[O-])cc3)O2)c(=O)[nH]c1=O", "assay": "as §1", "settings": "Homo sapiens"}, "[16]": {"substrate": "Cc1cn([C@H]2C[C@H](OP(=O)(O)Oc3ccc([N+](=O)[O-])cc3)[C@@H](CO)O2)c(=O)[nH]c1=O", "assay": "(§2) Substrate activity at PLD4 (unknown origin) assessed as ratio of Kcat to Km by Michaelis-Menten kinetic model based fluorescence assay", "settings": "Homo sapiens"}, "[17]": {"substrate": "Cc1cn([C@H]2C[C@H](O)[C@@H](COP(=O)(O)Oc3ccc([N+](=O)[O-])cc3)O2)c(=O)[nH]c1=O", "assay": "as §2", "settings": "Homo sapiens"}, "[18]": {"substrate": "Cc1cn([C@H]2C[C@H](OP(=O)(O)Oc3ccc([N+](=O)[O-])cc3)[C@@H](CO)O2)c(=O)[nH]c1=O", "assay": "(§3) Substrate activity at PLD4 (unknown origin) assessed as Kcat by Michaelis-Menten kinetic model based fluorescence assay", "settings": "Homo sapiens"}, "[19]": {"substrate": "Cc1cn([C@H]2C[C@H](O)[C@@H](COP(=O)(O)Oc3ccc([N+](=O)[O-])cc3)O2)c(=O)[nH]c1=O", "assay": "as §3", "settings": "Homo sapiens"}, "[20]": {"compound": "Cc1cc(C)cc(N2CCn3c2nc2c3c(=O)n(CC(=O)O)c(=N)n2C)c1", "assay": "Competitive inhibition of PLD4 (unknown origin) assessed as Vmax using varying concentration 3'-dT-MUP as substrate by fluorescence-based screening assay", "settings": "Homo sapiens"}, "[21]": {"substrate": "Cc1cn([C@H]2C[C@H](OP(=O)(O)Oc3ccc([N+](=O)[O-])cc3)[C@@H](CO)O2)c(=O)[nH]c1=O", "assay": "(§4) Substrate activity at PLD3 (unknown origin) assessed as ratio of Kcat to Km by Michaelis-Menten kinetic model based fluorescence assay", "settings": "Homo sapiens"}, "[22]": {"substrate": "Cc1cn([C@H]2C[C@H](O)[C@@H](COP(=O)(O)Oc3ccc([N+](=O)[O-])cc3)O2)c(=O)[nH]c1=O", "assay": "as §4", "settings": "Homo sapiens"}, "[23]": {"compound": "Cc1nc(SCC(=O)N2CCC(C)CC2)c2ccsc2n1", "assay": "Activation of PLD3 (unknown origin) assessed as Vmax using varying concentration 3'-dT-MUP as substrate by fluorescence-based screening assay", "settings": "Homo sapiens; filed as activator"}, "[24]": {"substrate": "Cc1cn([C@H]2C[C@H](OP(=O)(O)Oc3ccc([N+](=O)[O-])cc3)[C@@H](CO)O2)c(=O)[nH]c1=O", "assay": "(§5) Substrate activity at PLD3 (unknown origin) assessed as Kcat by Michaelis-Menten kinetic model based fluorescence assay", "settings": "Homo sapiens"}, "[25]": {"substrate": "Cc1cn([C@H]2C[C@H](O)[C@@H](COP(=O)(O)Oc3ccc([N+](=O)[O-])cc3)O2)c(=O)[nH]c1=O", "assay": "as §5", "settings": "Homo sapiens"}, "[26]": {"compound": "Cc1ccc(Cn2c(SCC(=O)O)nc3c2c(=O)n(C)c(=O)n3C)cc1", "assay": "(§6) Mixed type inhibition of PLD3 (unknown origin) assessed as Vmax using varying concentration 3'-dT-MUP as substrate by fluorescence-based screening assay", "settings": "Homo sapiens"}, "[27]": {"compound": "Cc1cc(C)cc(N2CCn3c2nc2c3c(=O)n(CC(=O)O)c(=N)n2C)c1", "assay": "as §6", "settings": "Homo sapiens"}, "[28]": {"substrate": "Cc1cn([C@H]2C[C@H](OP(=O)(O)Oc3ccc([N+](=O)[O-])cc3)[C@@H](CO)O2)c(=O)[nH]c1=O", "assay": "(§7) Substrate activity at PLD3 (unknown origin) assessed as Km by Michaelis-Menten kinetic model based fluorescence assay", "settings": "Homo sapiens"}, "[29]": {"substrate": "Cc1cn([C@H]2C[C@H](O)[C@@H](COP(=O)(O)Oc3ccc([N+](=O)[O-])cc3)O2)c(=O)[nH]c1=O", "assay": "as §7", "settings": "Homo sapiens"}, "[30]": {"compound": "Cc1nc(SCC(=O)N2CCC(C)CC2)c2ccsc2n1", "assay": "Activation of PLD3 (unknown origin) assessed as Km using varying concentration 3'-dT-MUP as substrate by fluorescence-based screening assay", "settings": "Homo sapiens; filed as activator"}}}
{"molecule": "Cc1ccc(Cn2c(SCC(=O)O)nc3c2c(=O)n(C)c(=O)n3C)cc1", "values": [{"measurement": "IC50", "setting": "5'-3' exonuclease PLD4 [1]", "value": 142, "unit": "µM"}, {"measurement": "INH", "setting": "[2]", "value": 6.2, "unit": "µM"}, {"measurement": "IC50", "setting": "5'-3' exonuclease PLD3 [3]", "value": 8.9, "unit": "µM"}, {"measurement": "IC50", "setting": "5'-3' exonuclease PLD3 [4]", "value": 13, "unit": "µM"}, {"measurement": "IC50", "setting": "5'-3' exonuclease PLD4 [5]", "value": 128, "unit": "µM"}, {"measurement": "INH", "setting": "[6]", "value": 13.6, "unit": "µM"}]}
{"molecule": "Cc1nc(SCC(=O)N2CCC(C)CC2)c2ccsc2n1", "values": [{"measurement": "EC50", "setting": "5'-3' exonuclease PLD4 [7]", "value": "Not Active"}, {"measurement": "EC50", "setting": "5'-3' exonuclease PLD4 [8]", "value": 115, "unit": "µM"}, {"measurement": "EC50", "setting": "5'-3' exonuclease PLD3 [9]", "value": 19.6, "unit": "µM"}, {"measurement": "EC50", "setting": "5'-3' exonuclease PLD3 [10]", "value": 12.8, "unit": "µM"}, {"measurement": "Ka", "setting": "[11]", "value": 80.9, "unit": "µM"}]}
{"molecule": "Cc1cc(C)cc(N2CCn3c2nc2c3c(=O)n(CC(=O)O)c(=N)n2C)c1", "values": [{"measurement": "IC50", "setting": "5'-3' exonuclease PLD4 [1]", "value": 14.7, "unit": "µM"}, {"measurement": "INH", "setting": "[2]", "value": 28.9, "unit": "µM"}, {"measurement": "IC50", "setting": "5'-3' exonuclease PLD3 [3]", "value": 127, "unit": "µM"}, {"measurement": "INH", "setting": "[12]", "value": 32.4, "unit": "µM"}, {"measurement": "INH", "setting": "[13]", "value": 64.5, "unit": "µM"}, {"measurement": "IC50", "setting": "5'-3' exonuclease PLD3 [4]", "value": 39.6, "unit": "µM"}, {"measurement": "IC50", "setting": "5'-3' exonuclease PLD4 [5]", "value": 19, "unit": "µM"}, {"measurement": "INH", "setting": "[6]", "value": 14.9, "unit": "µM"}]}
{"molecule": "B1", "values": [{"measurement": "kcat", "setting": "[14]", "value": 18.9, "unit": "s⁻¹"}, {"measurement": "kcat", "setting": "[15]", "value": 47, "unit": "s⁻¹"}, {"measurement": "kcat/Km", "setting": "[16]", "value": 5, "unit": "M⁻¹ s⁻¹"}, {"measurement": "kcat/Km", "setting": "[17]", "value": 86.6, "unit": "M⁻¹ s⁻¹"}, {"measurement": "Km", "setting": "[18]", "value": 378, "unit": "µM"}, {"measurement": "Km", "setting": "[19]", "value": 860, "unit": "µM"}, {"measurement": "Vmax", "setting": "[20]", "value": "1560 /RU/s"}]}
{"molecule": "B2", "values": [{"measurement": "kcat", "setting": "[21]", "value": 18.9, "unit": "s⁻¹"}, {"measurement": "kcat", "setting": "[22]", "value": 74.5, "unit": "s⁻¹"}, {"measurement": "Vmax", "setting": "[23]", "value": "327 /RU/s"}, {"measurement": "kcat/Km", "setting": "[24]", "value": 6.26, "unit": "M⁻¹ s⁻¹"}, {"measurement": "kcat/Km", "setting": "[25]", "value": 34.8, "unit": "M⁻¹ s⁻¹"}, {"measurement": "Vmax", "setting": "[26]", "value": "313 /RU/s"}, {"measurement": "Vmax", "setting": "[27]", "value": "318 /RU/s"}, {"measurement": "Km", "setting": "[28]", "value": 302, "unit": "µM"}, {"measurement": "Km", "setting": "[29]", "value": 1350, "unit": "µM"}, {"measurement": "Km", "setting": "[30]", "value": 14.7, "unit": "µM"}]}
